Test results taken from US20210137861A1, “METHODS FOR REDUCING ACCUMULATED PATHOLOGIC TAU PROTEIN” (HOUGH EAR INSTITUTE, priority 2018, published 2021).

Tested on: phospho-Tau (S202,T205) in SH-SY5Y neuroblastoma cells
Assay: Okadaic acid-induced p-Tau accumulation in SH-SY5Y cells, co-incubation (AT8 immunoblot)
Assay type: cell-based
Conditions: 100 nM OA alone, 3 h
Description: Reproducible hyperphosphorylated p-Tau accumulation can be induced in the SH-SY5Y neuroblastoma cell line following incubation with Okadaic Acid (OA), a small molecule inhibitor of protein phosphatase 2A (PP2A), according to the method described by Boban et al., J Neurosci Methods., S0165-0270(18)30297-8 (2018). In this experiment, SH-SY5Y cells were incubated with 100 nM OA alone or in combination with 2,4-DSPBN+NAC for three hours prior to harvesting the cells for immunoblot evaluations with the AT8 phospho-Tau (S202,T205) antibody or the housekeeping protein, GAPDH. […] Two doses of combinatorial 2,4-DSPBN+NAC (185 μM 2,4-DSPBN/500 μM NAC or 93 μM 2,4-DSPBN/250 μM NAC) were used in this experiment, each of which used a molar ratio that mimics the equal mass:mass ratios used in the in vivo studies (i.e. a 1:1 mass ratio of 2,4-DSPBN and NAC is equivalent to a 1:2.7 molar ratio).
Biological and technical replicates of the experiment described in FIG. 3 were conducted, and p-Tau(S202,T205) immunoblots (AT8 antibody) were subjected to densitometric evaluations of relative protein levels, using National Institutes of Health ImageJ software and the internal GAPDH protein standard. […]

Structure (SMILES): C=C1[C@@H](O)[C@@H]2O[C@]3(CC[C@H](/C=C/[C@@H](C)[C@@H]4CC(C)=C[C@@]5(O[C@H](C[C@@](C)(O)C(=O)O)CC[C@H]5O)O4)O3)CC[C@H]2O[C@@H]1[C@@H](O)C[C@H](C)[C@H]1O[C@@]2(CCCCO2)CC[C@H]1C [OA, Okadaic Acid]
- phospho-Tau(S202,T205) level relative to untreated control cells (immunoblot, FIG. 3): marked phospho-Tau(S202,T205) accumulation
